ChEMBL document CHEMBL3600368, “Novel broad-spectrum inhibitors of bacterial methionine aminopeptidase” (Bioorg Med Chem Lett, 2015)
Converted amounts (≈) assume the structure as drawn. Residues, ends and D or L forms follow the SMILES beside them. *: point of attachment. Cbz = O=C(OCc1ccccc1)*

What was measured:
[1] = Inhibition of Escherichia coli methionine aminopeptidase
[2] = Lipophilicity, log D of the compound; format: physicochemical; details: octanol/water
[3] = Unbound fraction in plasma (unknown origin); format: ADME, cell-free
[4] = Inhibition of Haemophilus influenzae methionine aminopeptidase
[5] = Inhibition of Staphylococcus aureus methionine aminopeptidase
[6] = Intrinsic clearance in rat liver microsomes; format: ADME; details: read-out: CLH
[7] = Inhibition of Streptococcus pneumoniae methionine aminopeptidase
[8] = Solubility of the compound; format: physicochemical

Row | SMILES | IC50 [1] [µM] | logD [2] | fraction unbound [3] | IC50 [4] [µM] | IC50 [5] [µM] | microsomal CLint [6] [µL/min/mg] | IC50 [7] [µM] | solubility [8] [µM]
1 | CC(=O)N[C@@H](C)C(=O)N[C@H]1CC=C[C@H](c2ccccc2)N(C)C1=O | > 200 |  |  | > 200 |  |  | > 200 | 
2 | C[C@H](NC(=O)OCc1ccccc1)C(=O)N[C@H]1CC=C[C@@H](c2ccccc2)N(C)C1=O | > 200 |  |  | > 200 |  |  | > 200 | 
3 | CN1C(=O)[C@@H](NC(=O)C(C)(C)NC(=O)OCc2ccccc2)CC=C[C@@H]1c1ccccc1 | > 200 |  |  | > 200 |  |  | > 200 | 
4 | C[C@@H](C(=O)N[C@H]1CC=C[C@H](c2ccccc2)N(C)C1=O)N(C)C(=O)OCc1ccccc1 | > 200 |  |  | > 200 |  |  | > 200 | 
5 | CC(C)[C@H](NC(=O)OCc1ccccc1)C(=O)N[C@H]1CC=C[C@H](c2ccccc2)N(C)C1=O | > 200 |  |  | > 200 |  |  | > 200 | 
6 | CN1C(=O)[C@@H](NC(=O)[C@H](CO)NC(=O)OCc2ccccc2)CC=C[C@@H]1c1ccccc1 | 102 |  |  | 132 |  |  | 71.4 | 
7 | C[C@H](N)C(=O)N[C@@H](C)C(=O)N[C@H]1CC=C[C@H](C2CCCCC2)N(C)C1=O | > 200 |  |  | > 200 |  |  | > 200 | 
8 | C[C@H](NC(=O)[C@H](C)NC(=O)OCc1ccccc1)C(N)=O (Cbz-Ala-Ala-NH2) | > 200 |  |  | > 200 |  |  | > 200 | 

The next compounds have a lower IC50 [1] than those just listed; values first:

Row | IC50 [1] [µM] | logD [2] | fraction unbound [3] | IC50 [4] [µM] | IC50 [5] [µM] | microsomal CLint [6] [µL/min/mg] | IC50 [7] [µM] | solubility [8] [µM] | SMILES
9 | 30 | 2.6 | 0.051 | 60 | > 200 | 339 | 46 | 450 (≈ 199 µg/mL) | C[C@H](NC(=O)Cc1cc(F)cc(F)c1)C(=O)N[C@H]1CC=C[C@H](c2ccccc2)N(C)C1=O
10 | 8.1 | 1.65 | 0.027 | 11.3 |  | 720 | 7.4 | 341 (≈ 144 µg/mL) | C[C@H](NC(=O)OCc1ccccc1)C(=O)N[C@H]1CC=C[C@H](c2ccccc2)N(C)C1=O
11 | 1.4 | 1.98 | 0.108 | 6.7 |  | 93.5 | 0.12 | > 1000 | C[C@H](NC(=O)[C@@H](N)c1ccccc1)C(=O)N[C@H]1CC=C[C@H](C2CCCCC2)N(C)C1=O
12 | 8 |  |  | 15.6 |  |  | 4 |  | C[C@H](NC(=O)[C@H](N)c1ccccc1)C(=O)N[C@H]1CC=C[C@H](C2CCCCC2)N(C)C1=O
13 | 2.2 | 2.2 | 0.109 | 4.7 |  | 689 | 9.7 | > 1000 | C[C@H](NC(=O)[C@@H](N)Cc1ccccc1)C(=O)N[C@H]1CC=C[C@H](C2CCCCC2)N(C)C1=O
14 | 0.8 | 2.69 | 0.016 | 1.1 |  | 159 | 0.3 | 888 (≈ 409 µg/mL) | C[C@H](NC(=O)[C@@H](N)c1cccc(Cl)c1)C(=O)N[C@H]1CC=C[C@H](C2CCCCC2)N(C)C1=O
